The nature of data set [1]: Permeability through the monolayer of Caco-2 cells. The class given is in vitro ADME. As to conditions: human; for Papp A→B at 2 h, 10 μM / Papp B→A at 2 h, 10 μM: 2 h at 37° C.; for efflux ratio at 2 h, 10 μM: read-out: efflux (Papp B-A/Papp A-B). The procedure, abridged:
(§1)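 Bidirectional transport measured over 7200 s with 10 μM compound, using an apical buffer at pH 6.5 and a basolateral Hanks/HEPES/glucose buffer at pH 7.4 containing 1% BSA. Monolayers were 21-day Caco-2 cultures verified with Lucifer Yellow. Chamber concentrations quantified chromatographically to derive Papp in both directions and their B-A/A-B efflux ratio.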
(In general: Caco-2 cells form a polarised layer with tight junctions and transporters.)

Another data set deals with Caco-2 cells. The experiment in a line: Permeability through the monolayer of Caco-2 cells. Type of data set: in vitro ADME. The procedure, abridged:
as §1

Data set [2] in a line: Chemical stability in artificial gastric fluid (SGF without enzymes). As to conditions: 10 μM in SGF without enzymes, pH=1.4, 37° C.
Protocol: The initial candidate solution (10 mM in DMSO) was diluted with the working solution of SGF to the concentration of 10 μm (test solution). The test solution was incubated in a dry block heater at 37° C. We determined peak areas of the compounds corresponding to the start of the test (before incubating) and the end of the test (after incubating in a dry block heater at 37° C.) by HPLC using Agilent1200 chromatograph (Agilent, USA). We used gradient elution (1 mL/min flow rate). We determined amount of substance in the sample in % after incubation.
We evaluated the stability of the compounds.

For `C=CC(=O)N1CCC[C@@H](n2nc(-c3ccc(Oc4ccncc4)cc3)c3cncc(Cl)c32)C1` [BCD-BTK-125, (R)-1-(1-acryloylpiperidin-3-yl)-7-chloro-3-(4-(pyridin-4-yloxy)phenyl)-1H-pyrazolo[4,3-c]pyridine], in data set [1], the Papp A→B (as a rule, how fast a substance crosses the layer from the apical side) at 2 h, 10 μM was determined as 21 ×10⁻⁶ cm/s; the Papp B→A (usually how fast a substance crosses the layer from the basolateral side) at 2 h, 10 μM amounted to 13.2 ×10⁻⁶ cm/s; the efflux ratio at 2 h, 10 μM came out at 0.6.

Regarding `C=CC(=O)N1CCC[C@@H](n2nc(-c3ccc(Oc4ccncc4)cc3)c3c(N)ncc(Cl)c32)C1` [BCD-BTK-139, (R)-1-(1-acryloylpiperidin-3-yl)-7-chloro-3-(4-(pyridin-4-yloxy)phenyl)-1H-pyrazolo[4,3-c]pyridin-4-amine], in data set [1], the Papp A→B at 2 h, 10 μM was 52.2 ×10⁻⁶ cm/s; the apparent permeability from basolateral to apical (Papp B→A) at 2 h, 10 μM was found to be 5.7 ×10⁻⁶ cm/s; the efflux ratio at 2 h, 10 μM was 0.1.

As for `C=CC(=O)N1CCC[C@@H](n2nc(-c3ccc(Oc4ccncc4C#N)cc3)c3cncc(Cl)c32)C1` [BCD-BTK-202, (R)-4-(4-(1-(1-acryloylpiperidin-3-yl)-7-chloro-1H-pyrazolo[4,3-c]pyridin-3-yl)phenoxy)nicotinonitrile], in the data set with Caco-2 cells, the “efflux (Papp B-A/Papp A-B)” value stood at 0.09. For the same compound, in data set [1], the Papp A→B at 2 h, 10 μM came out at 20.3 ×10⁻⁶ cm/s and the Papp B→A at 2 h, 10 μM is 1.91 ×10⁻⁶ cm/s.

Take `C=CC(=O)N1CCC[C@@H](n2nc(-c3ccc(Oc4cccnc4C(N)=O)cc3)c3cncc(Cl)c32)C1` [BCD-BTK-220, 3-(4-{7-chloro-1-[(3R)-1-(prop-2-enoyl)piperidin-3-yl]-1H-pyrazolo[4,3-c]pyridin-3-yl}phenoxy)pyridine-2-carboxamide]: in data set [2], the “Amount of substance in the sample in % (chemical stability)” value (“Amount of substance in the sample in %” below) is 100%.

Regarding `C=CC(=O)N1CCC[C@@H](n2nc(-c3ccc(Oc4cccnc4C#N)cc3)c3cncc(F)c32)C1` [BCD-BTK-230, (R)-3-(4-(1-(1-acryloylpiperidin-3-yl)-7-fluoro-1H-pyrazolo[4,3-c]pyridin-3-yl)phenoxy)picolinonitrile], in data set [1], the Papp A→B at 2 h, 10 μM amounted to 26.5 ×10⁻⁶ cm/s; the apparent permeability from basolateral to apical (Papp B→A) at 2 h, 10 μM is 2.68 ×10⁻⁶ cm/s; the efflux ratio at 2 h, 10 μM stood at 0.1. Moreover, the “Amount of substance in the sample in %” value in data set [2] worked out at 99.9%.

As for `C=CC(=O)N1CCC[C@@H](n2nc(-c3ccc(C(=O)Nc4ccccn4)cc3)c3c(N)ncc(C#N)c32)C1` [BCD-BTK-234, (R)-4-(1-(1-acryloylpiperidin-3-yl)-4-amino-7-cyano-1H-pyrazolo[4,3-c]pyridin-3-yl)-N-(pyridine-2-yl)benzamide], in data set [1], the apparent permeability from apical to basolateral (Papp A→B) at 2 h, 10 μM turned out to be 8.2 ×10⁻⁶ cm/s; the apparent permeability from basolateral to apical (Papp B→A) at 2 h, 10 μM came out at 9.2 ×10⁻⁶ cm/s; the efflux ratio at 2 h, 10 μM is 1.1. Also, in data set [2], the “Amount of substance in the sample in %” value is 100%.

Turning to `C=CC(=O)N1CCC[C@@H](n2nc(-c3ccc(Oc4ccncc4)cc3)c3c(N)ncc(OC)c32)C1` [BCD-BTK-239, (R)-1-(1-acryloylpiperidin-3-yl)-4-amine-7-methoxy-3-(4-(pyridin-4-yloxy)phenyl)-1H-pyrazolo[4,3-c]pyridine], the “Amount of substance in the sample in %” value in data set [2] turned out to be 100%.

`C=CC(=O)N1CCC[C@@H](n2nc(-c3ccc(C(=O)Nc4ccccn4)cc3)c3c(N)ncc(OC)c32)C1` [BCD-BTK-240, (R)-4-(1-(1-acryloylpiperidin-3-yl)-4-amino-7-methoxy-1H-pyrazolo[4,3-c]pyridin-3-yl)-N-(pyridin-2-yl)benzamide]: in data set [1], the Papp A→B at 2 h, 10 μM is 18.2 ×10⁻⁶ cm/s; the apparent permeability from basolateral to apical (Papp B→A) at 2 h, 10 μM worked out at 11.1 ×10⁻⁶ cm/s; the efflux ratio at 2 h, 10 μM worked out at 0.61. In data set [2], the “Amount of substance in the sample in %” value turned out to be 100%.

As for `C=CC(=O)N1CCC[C@@H](n2nc(-c3ccc(C(=O)Nc4ccccn4)cc3)c3c(N)nccc32)C1` [BCD-BTK-242, (R)-4-(1-(1-acryloylpiperidin-3-yl)-4-amino-1H-pyrazolo[4,3-c]pyridin-3-yl)-N-(pyridin-2-yl)benzamide], in data set [2], the “Amount of substance in the sample in %” value came out at 100%.

Regarding `C=CC(=O)N1CCC[C@@H](n2nc(-c3ccc(C(=O)Nc4cc(C(F)(F)F)ccn4)cc3)c3c(N)ncc(Cl)c32)C1` [BCD-BTK-251, (R)-4-(1-(1-acryloylpiperidin-3-yl)-4-amino-7-chloro-1H-pyrazolo[4,3-c]pyridin-3-yl)-N-(4-(trifluoromethyl)pyridin-2-yl)benzamide], in data set [1], the Papp A→B at 2 h, 10 μM amounted to 8.3 ×10⁻⁶ cm/s; the apparent permeability from basolateral to apical (Papp B→A) at 2 h, 10 μM was 1.5 ×10⁻⁶ cm/s; the efflux ratio at 2 h, 10 μM is 0.2.

On to `C=CC(=O)N1CCC[C@@H](n2nc(-c3ccc(C(=O)Nc4ncccc4F)cc3)c3c(N)ncc(C#N)c32)C1` [BCD-BTK-258, 4-{4-amino-7-cyano-1-[(3R)-1-(prop-2-enoyl)piperidin-3-yl]-1H-pyrazolo[4,3-c]pyridin-3-yl}-N-(3-fluoropyridin-2-yl)benzamide], for which the “Amount of substance in the sample in %” value in data set [2] came to 100%.

On to `C=CC(=O)N1CCC[C@@H](n2nc(-c3cnc(C(=O)Nc4cc(C(F)(F)CCC)ccn4)nc3)c3cncc(Cl)c32)C1` [BCD-BTK-292, (R)-5-(1-(1-acryloylpiperidin-3-yl)-7-chloro-1H-pyrazolo[4,3-c]pyridin-3-yl)-N-(4-(1,1-difluorobutyl)pyridin-2-yl)pyrimidine-2-carboxamide], for which the “efflux (Papp B-A/Papp A-B)” value in the data set on Caco-2 cells worked out at 0.006. Also, in data set [1], the apical-to-basolateral permeability (Papp A→B) at 2 h, 10 μM was 11.6 ×10⁻⁶ cm/s and the Papp B→A at 2 h, 10 μM was 0.07 ×10⁻⁶ cm/s.

The values above are taken from patent US20190352276A1, “INHIBITORS OF BRUTON'S TYROSINE KINASE” (Joint Stock Company "Biocad", priority 2016, published 2019).
